Among the data in patent US9789096B2, “Methods and compositions for selective and targeted cancer therapy” (Board of Regents of the University of Texas System, priority 2013, dated 2017) are IC50 values, retold here.

The structures appear in SMILES notation.

One test deals with H1819. The test can be described thus: Cell viability dose-response, H1819. The format is cell-based, human. The note with it: 12-point dose-response starting at 50 micromolar, 3-fold increments, in duplicate; read-out: toxicity data, H1819. Here is the method:
(§1) FIG. 6A. […] Cell viability is plotted vs. compound concentration. Compound was added to cells plated at 15% confluence in 96-well plates in RPMI-1640 media supplemented with 5% Fetal Bovine Serum and 2 mM L-Glutamine. After 4 days of incubation, ATP levels were measured using Cell Titer Glo (Promega). Data are presented as the average of 2 replicates ±SEM.
(§2) Selectivity may be measured by the half maximal inhibitory concentration (IC50), which, as used herein, is a measure of the effectiveness of a compound in killing cells. This quantitative measure indicates how much of a particular compound is needed to kill a particular cell population by half (e.g., as indicated by the amount of ATP). […] The IC50 can be determined by constructing a dose-response curve. The lower the IC50, the higher the potency, and the greater the difference between IC50 values for different cell lines (e.g., sensitive lines vs. insensitive lines, and sensitive lines vs. normal lines) the greater the selectivity. […]
(§3) With this information, we synthesized and tested a series of small molecules derived in conception from the oxalamide and chromone scaffold including N-acyl ureas, as shown in Tables 6-8. Each compound was tested in a 12-point dose-response study starting at 50 micromolar and decreasing in 3-fold increments to sub-nanomolar concentrations, in duplicate. Additionally, one or more additional cell line was tested in the same way.
On to `COc1ccc(CCNC(=O)C(=O)Nc2ccc(Cl)cc2)cc1` [SW027951-2-A], for which the IC50 was no less than 49.5 µM.

As to `COc1ccc(CCNC(=O)C(=O)Nc2cc(Cl)cc(Cl)c2)cc1` [SW206891-2], the IC50 is no less than 49.5 µM.

Staying with this test, now noted: Homo sapiens, NCI-H1819, 12-point dose-response starting at 50 micromolar, 3-fold increments, in duplicate; read-out: toxicity data, H1819.
On to `COc1ccc(CCNC(=O)C(=O)Nc2cccc(F)c2)cc1` [SW2068S9-1-A], for which the IC50 was no less than 49.5 µM.

As for `COc1ccc(CCNC(=O)C(=O)Nc2cccc(Br)c2)cc1` [SW027952-2-A], the IC50 is no less than 49.5 µM.

In the case of `COc1ccc(CCNC(=O)C(=O)Nc2ccccc2OC)cc1` [SW027954-2-A], the IC50 is no less than 49.5 µM.

As for `COc1ccc(CCNC(=O)C(=O)Nc2ccccc2F)cc1` [SW027962-2-A], the IC50 is no less than 49.5 µM.

On to `O=C(NCCc1ccccc1)C(=O)Nc1ccc(Cl)cc1` [SW113361-2-A], for which the IC50 is no less than 49.5 µM.

In the case of `COc1ccc(NC(=O)Nc2ccc(OC)cc2)cc1` [SW113878-2-A], the IC50 is no less than 49.5 µM.

Regarding `COc1ccc(CCNC(=O)C(=O)Nc2ccc(F)c(Cl)c2)cc1` [SW206860-1-A], the IC50 was no less than 49.5 µM.

Regarding `COc1ccc(CCNC(=O)C(=O)Nc2cc(F)cc(Cl)c2)cc1` [SW206861-1-A], the IC50 worked out at 44.2 µM.

Take `COc1ccc(CCNC(=O)C(=O)Nc2cc(F)ccc2Cl)cc1` [SW206862-1-A]: the IC50 was no less than 49.5 µM.

In the case of `COc1ccc(CCNC(=O)C(=O)Nc2ccc(F)cc2Cl)cc1` [SW206863-1-a], the IC50 is no less than 49.5 µM.

Consider `COc1ccc(CCNC(=O)C(=O)Nc2cc(Cl)ccc2C)cc1` [SW206866-1-A], for which the IC50 was no less than 49.5 µM.

Turning to `COc1ccc(CCNC(=O)C(=O)Nc2cc(C)ccc2Cl)cc1` [SW206867-1-A], the IC50 was no less than 49.5 µM.

`COc1ccc(CCNC(=O)C(=O)Nc2c(C)cccc2Cl)cc1` [SW206868-1-A]: the IC50 is no less than 49.5 µM.

Regarding `COc1ccc(CCNC(=O)C(=O)Nc2cc(Cl)cc(C(F)(F)F)c2)cc1` [SW206869-1-A], the IC50 is no less than 49.5 µM.

In the case of `COc1ccc(CCNC(=O)C(=O)Nc2cc(OC)ccc2Cl)cc1` [SW206870-1-A], the IC50 is no less than 49.5 µM.

Turning to `COc1ccc(CCNC(=O)C(=O)Nc2cccc(OC)c2)cc1` [SW206871-1-A], the IC50 is no less than 49.5 µM.

For `COc1ccc(CCNC(=O)C(=O)Nc2cc(F)c(Br)c(F)c2)cc1` [SW206872-1-A], the IC50 is no less than 49.5 µM.

As to `COc1ccc(CCNC(=O)C(=O)Nc2cc(Cl)c(Br)c(Cl)c2)cc1` [SW206875-1-A], the IC50 was determined as 17.8 µM.

As for `COc1ccc(CCNC(=O)C(=O)Nc2cc(F)c(F)c(Br)c2)cc1` [SW206876-1-A], the IC50 is no less than 49.5 µM.

For `COc1ccc(CCNC(=O)C(=O)Nc2cc(F)ccc2Br)cc1` [SW206877-1-A], the IC50 was no less than 49.5 µM.

In the case of `COc1ccc(CCNC(=O)C(=O)Nc2ccc(F)c(Br)c2)cc1` [SW206878-1-A], the IC50 is no less than 49.5 µM.

Take `COc1ccc(CCNC(=O)C(=O)Nc2cc(F)ccc2C)cc1` [SW206879-1-A]: the IC50 is no less than 49.5 µM.

As to `COc1ccc(CCNC(=O)C(=O)Nc2ccc(C)c(F)c2)cc1` [SW206880-1-A], the IC50 was no less than 49.5 µM.

On to `COc1ccc(CCNC(=O)C(=O)Nc2cc(C)cc(F)c2)cc1` [SW206881-1-A], for which the IC50 was no less than 49.5 µM.

Turning to `COc1ccc(CCNC(=O)C(=O)Nc2cccc(F)c2C)cc1` [SW206882-1-A], the IC50 was no less than 49.5 µM.

As to `COc1ccc(CCNC(=O)C(=O)Nc2ccc(C)cc2F)cc1` [SW206883-1-A], the IC50 is no less than 49.5 µM.

For another test, the system named is H2122. The experiment in a line: Cell viability dose-response, H2122. The note with it: 12-point dose-response starting at 50 micromolar, 3-fold increments, in duplicate; read-out: toxicity data, H2122. The format is cell-based, human. As to the method:
as §1, §2, §3
As for `COc1ccc(CCNC(=O)C(=O)Nc2ccc(Cl)cc2)cc1` [SW027951-2-A], the IC50 was 0.28 µM.

With `COc1ccc(CCNC(=O)C(=O)Nc2cccc(Br)c2)cc1` [SW027952-2-A], the IC50 amounted to 3.1 µM.

For `COc1ccc(CCNC(=O)C(=O)Nc2cc(Cl)cc(Cl)c2)cc1` [SW206891-2], the IC50 is no less than 49.5 µM.

The same test, now with this note: Homo sapiens, NCI-H2122, 12-point dose-response starting at 50 micromolar, 3-fold increments, in duplicate; read-out: toxicity data, H2122.
In the case of `COc1ccc(CCNC(=O)C(=O)Nc2cccc(F)c2)cc1` [SW2068S9-1-A], the IC50 was 2.26 µM.

Take `COc1ccc(CCNC(=O)C(=O)Nc2ccccc2OC)cc1` [SW027954-2-A]: the IC50 was no less than 49.5 µM.

As to `COc1ccc(CCNC(=O)C(=O)Nc2ccccc2F)cc1` [SW027962-2-A], the IC50 was no less than 49.5 µM.

In the case of `O=C(NCCc1ccccc1)C(=O)Nc1ccc(Cl)cc1` [SW113361-2-A], the IC50 was no less than 49.5 µM.

On to `COc1ccc(NC(=O)Nc2ccc(OC)cc2)cc1` [SW113878-2-A], for which the IC50 is no less than 49.5 µM.

Consider `COc1ccc(CCNC(=O)C(=O)Nc2ccc(F)c(Cl)c2)cc1` [SW206860-1-A], for which the IC50 is 0.738 µM.

On to `COc1ccc(CCNC(=O)C(=O)Nc2cc(F)cc(Cl)c2)cc1` [SW206861-1-A], for which the IC50 is no less than 49.5 µM.

For `COc1ccc(CCNC(=O)C(=O)Nc2cc(F)ccc2Cl)cc1` [SW206862-1-A], the IC50 is no less than 49.5 µM.

As to `COc1ccc(CCNC(=O)C(=O)Nc2ccc(F)cc2Cl)cc1` [SW206863-1-a], the IC50 was no less than 49.5 µM.

Consider `COc1ccc(CCNC(=O)C(=O)Nc2cc(Cl)ccc2C)cc1` [SW206866-1-A], for which the IC50 is no less than 49.5 µM.

For the molecule `COc1ccc(CCNC(=O)C(=O)Nc2cc(C)ccc2Cl)cc1` [SW206867-1-A], the IC50 was no less than 49.5 µM.

On to `COc1ccc(CCNC(=O)C(=O)Nc2c(C)cccc2Cl)cc1` [SW206868-1-A], for which the IC50 is no less than 49.5 µM.

As to `COc1ccc(CCNC(=O)C(=O)Nc2cc(Cl)cc(C(F)(F)F)c2)cc1` [SW206869-1-A], the IC50 was no less than 49.5 µM.

For the molecule `COc1ccc(CCNC(=O)C(=O)Nc2cc(OC)ccc2Cl)cc1` [SW206870-1-A], the IC50 was no less than 49.5 µM.

`COc1ccc(CCNC(=O)C(=O)Nc2cccc(OC)c2)cc1` [SW206871-1-A]: the IC50 stood at 0.932 µM.

For `COc1ccc(CCNC(=O)C(=O)Nc2cc(F)c(Br)c(F)c2)cc1` [SW206872-1-A], the IC50 is no less than 49.5 µM.

For the molecule `COc1ccc(CCNC(=O)C(=O)Nc2cc(Cl)c(Br)c(Cl)c2)cc1` [SW206875-1-A], the IC50 came to 25.3 µM.

As for `COc1ccc(CCNC(=O)C(=O)Nc2cc(F)c(F)c(Br)c2)cc1` [SW206876-1-A], the IC50 was no less than 49.5 µM.

Turning to `COc1ccc(CCNC(=O)C(=O)Nc2cc(F)ccc2Br)cc1` [SW206877-1-A], the IC50 was no less than 49.5 µM.

As to `COc1ccc(CCNC(=O)C(=O)Nc2ccc(F)c(Br)c2)cc1` [SW206878-1-A], the IC50 came to 0.384 µM.

With `COc1ccc(CCNC(=O)C(=O)Nc2cc(F)ccc2C)cc1` [SW206879-1-A], the IC50 was no less than 49.5 µM.

With `COc1ccc(CCNC(=O)C(=O)Nc2ccc(C)c(F)c2)cc1` [SW206880-1-A], the IC50 was found to be 0.306 µM.

As to `COc1ccc(CCNC(=O)C(=O)Nc2cc(C)cc(F)c2)cc1` [SW206881-1-A], the IC50 came out at 9.9 µM.

`COc1ccc(CCNC(=O)C(=O)Nc2cccc(F)c2C)cc1` [SW206882-1-A]: the IC50 is no less than 49.5 µM.

For the molecule `COc1ccc(CCNC(=O)C(=O)Nc2ccc(C)cc2F)cc1` [SW206883-1-A], the IC50 amounted to 0.727 µM.

Still in this test, the particulars now being: Homo sapiens, NCI-H2122, Table 9, competitor; read-out: IC50 to H2122 cells.
On to `COc1ccc(CCNC(=O)C(=O)Nc2ccc(C)cc2F)cc1` [SW206883-1-A], for which the IC50 worked out at 0.5 µM.
